Measurements reported in patent US9296723B2, “NAMPT inhibitors” (AbbVie Inc., priority 2012, dated 2016).
pIC50: −log10 of the molar value.

Experiments:
[1] = molecular target: T1, NAMPT (Homo sapiens, UniProt P43490); assay: TR-FRET Binding Assay of NAMPT with PRPP; conditions: 2 nM NAMPT, 2 nM probe, 200 µM PRPP and 2.5 mM ATP, equilibrated 16 hours
Procedure, shortened: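 Substrates present: PRPP at 200 µM and ATP at 2.5 mM, final, alongside 2 nM enzyme, 2 nM tracer and 1 nM terbium anti-His donor in 2% DMSO. A 16-hour equilibration preceded the time-resolved FRET read, allowing compounds to be enzymatically modified.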

[2] = molecular target: T1, NAMPT; assay: Time-Resolved Fluorescence Resonance Energy Transfer (TR-FRET) Binding Assay of NAMPT; conditions: 6.8 nM NAMPT, 200 nM probe, equilibrated 3 hours, no substrates
Procedure, shortened: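 IC50s come from four-parameter logistic fits of control-normalized Em520/Em495 TR-FRET ratios (Ex 337 nm) against compound concentration. Before reading, enzyme, probe, antibody and compound equilibrated for 3 h at room temperature.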

[3] = system: PC3 cells; assay: NAMPT Cell Proliferation Assay (Cell Titer Glo); type: cell-based; conditions: Homo sapiens, PC-3, 120 h, incubated 5 days, cell viability
Procedure, shortened: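 Viability measured by Cell Titer Glo luminescence after 5-day exposure of attached PC3 cells to compound, dosed as 10-fold serial dilutions ([…]) in RPMI/10% FBS at 37 °C and 5% CO2. Percent inhibition fitted to sigmoidal dose-response curves for IC50.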

T1 sequence (P43490 whole entry): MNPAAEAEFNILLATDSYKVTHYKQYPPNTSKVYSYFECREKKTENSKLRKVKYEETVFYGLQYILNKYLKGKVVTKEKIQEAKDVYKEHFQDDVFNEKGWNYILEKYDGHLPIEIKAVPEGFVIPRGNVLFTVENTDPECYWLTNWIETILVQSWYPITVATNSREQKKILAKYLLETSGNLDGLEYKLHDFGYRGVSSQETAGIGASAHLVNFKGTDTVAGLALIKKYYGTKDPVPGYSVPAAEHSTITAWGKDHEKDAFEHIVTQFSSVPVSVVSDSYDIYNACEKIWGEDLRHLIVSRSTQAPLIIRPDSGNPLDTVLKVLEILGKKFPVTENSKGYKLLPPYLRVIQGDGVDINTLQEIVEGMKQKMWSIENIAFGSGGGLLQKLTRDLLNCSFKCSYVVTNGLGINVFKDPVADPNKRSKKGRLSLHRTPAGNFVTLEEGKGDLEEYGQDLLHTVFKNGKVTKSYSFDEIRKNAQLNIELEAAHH

Compound | pIC50 [1] | pIC50 [2] | pIC50 [3]
CCC(CC)CN1CCC(c2ccc(NC(=O)N3CC(c4cccnc4)C3)cc2)CC1 [Example 237, N-{4-[1-(2-ethylbutyl)piperidin-4-yl]phenyl}-3-(pyridin-3-yl)azetidine-1-carboxamide] | 9.59 | 6.24 | 6.46
O=C(Nc1ccc(C2CN(CC3CC3)C2)cc1)N1CC(c2cccnc2)C1 [Example 248, N-{4-[1-(cyclopropylmethyl)azetidin-3-yl]phenyl}-3-(pyridin-3-yl)azetidine-1-carboxamide] | 9.64 | 6.00 | 5.86
Cc1ccc(C2CN(C(=O)Nc3ccc(OC4CCN(C(=O)CC5CCOCC5)CC4)cc3)C2)cn1 [Example 8, 3-(6-methylpyridin-3-yl)-N-(4-{[1-(tetrahydro-2H-pyran-4-ylacetyl)piperidin-4-yl]oxy}phenyl)azetidine-1-carboxamide] | 7.81 | 6.21 | 5.15
O=C(CC1C[C@@H]2CC[C@H]1C2)N1CCC(c2ccc(NC(=O)N3CC(c4cccnc4)C3)cc2)C1 (stereo partly drawn) [Example 260, N-(4-{1-[(1S,4R)-bicyclo[2.2.1]hept-2-ylacetyl]pyrrolidin-3-yl}phenyl)-3-(pyridin-3-yl)azetidine-1-carboxamide] | 9.52 | 7.42 | 7.02
CCC(C)CC(=O)N1CCC(c2ccc(NC(=O)N3CC(c4cccnc4)C3)cc2)C1 (stereo not drawn) [Example 259, N-{4-[1-(3-methylpentanoyl)pyrrolidin-3-yl]phenyl}-3-(pyridin-3-yl)azetidine-1-carboxamide] | 9.34 | 7.26 | 7.19
O=C(Nc1ccc(C2CCN(C(=O)C3CCCCC3)C2)cc1)N1CC(c2cccnc2)C1 (stereo not drawn) [Example 293, N-{4-[1-(cyclohexylcarbonyl)pyrrolidin-3-yl]phenyl}-3-(pyridin-3-yl)azetidine-1-carboxamide] | 9.68 | 7.25 | 7.15
O=C(CC1CCCCC1)N1CC[C@@H](Oc2ccc(NC(=O)N3CC(c4cccnc4)C3)cc2)C1 [Example 317, N-(4-{[(3R)-1-(cyclohexylacetyl)pyrrolidin-3-yl]oxy}phenyl)-3-(pyridin-3-yl)azetidine-1-carboxamide] | 9.68 | 7.52 | 7.26
CCOCCC(=O)N1CCC(c2ccc(NC(=O)N3CC(c4cccnc4)C3)cc2)CC1 [Example 168, N-{4-[1-(3-ethoxypropanoyl)piperidin-4-yl]phenyl}-3-(pyridin-3-yl)azetidine-1-carboxamide] | 9.30 | 7.54 | 7.35
O=C(CC1CC1)N1CC=C(c2ccc(NC(=O)N3CC(c4cccnc4)C3)cc2)CC1 [Example 26, N-{4-[1-(cyclopropylacetyl)-1,2,3,6-tetrahydropyridin-4-yl]phenyl}-3-(pyridin-3-yl)azetidine-1-carboxamide] | 9.14 | 7.13 | 6.76
CCCC(C)C(=O)N1CC(Oc2ccc(NC(=O)N3CC(c4cccnc4)C3)cc2)C1 (stereo not drawn) [Example 136, N-(4-{[1-(2-methylpentanoyl)azetidin-3-yl]oxy}phenyl)-3-(pyridin-3-yl)azetidine-1-carboxamide] | 9.26 | 7.82 | 8.13
CC(C)(C)C(=O)N1CC(c2ccc(NC(=O)N3CC(c4cccnc4)C3)cc2)C1 [Example 206, N-{4-[1-(2,2-dimethylpropanoyl)azetidin-3-yl]phenyl}-3-(pyridin-3-yl)azetidine-1-carboxamide] | 9.59 | 7.31 | 7.20
CC[C@H](C)C(=O)N1CC(Oc2ccc(NC(=O)N3CC(c4cccnc4)C3)cc2)C1 [Example 1, N-[4-({1-[(2S)-2-methylbutanoyl]azetidin-3-yl}oxy)phenyl]-3-(pyridin-3-yl)azetidine-1-carboxamide] | 9.06 | 7.60 | 7.93
CN1CCN(CC(=O)N2CC(Oc3ccc(NC(=O)N4CC(c5cccnc5)C4)cc3)C2)CC1 [Example 149, N-[4-({1-[(4-methylpiperazin-1-yl)acetyl]azetidin-3-yl}oxy)phenyl]-3-(pyridin-3-yl)azetidine-1-carboxamide] | 9.66 | 7.66 | 7.12
CCOCC(=O)N1CCC(c2ccc(NC(=O)N3CC(c4cccnc4)C3)cc2)C1 (stereo not drawn) [Example 288, N-{4-[1-(ethoxyacetyl)pyrrolidin-3-yl]phenyl}-3-(pyridin-3-yl)azetidine-1-carboxamide] | 9.64 | 6.93 | 7.08
CC(C)C(C)C(=O)N1CCC(c2ccc(NC(=O)N3CC(c4cccnc4)C3)cc2)CC1 (stereo not drawn) [Example 197, N-{4-[1-(2,3-dimethylbutanoyl)piperidin-4-yl]phenyl}-3-(pyridin-3-yl)azetidine-1-carboxamide] | 9.30 | 7.75 | 7.64
CCCC(=O)N1CC(Oc2ccc(NC(=O)N3CC(c4cccnc4)C3)cc2)C1 [Example 129, N-{4-[(1-butanoylazetidin-3-yl)oxy]phenyl}-3-(pyridin-3-yl)azetidine-1-carboxamide] | 9.40 | 7.40 | 7.95
CCC(CC)CN1CC(c2ccc(NC(=O)N3CC(c4cccnc4)C3)cc2)C1 [Example 253, N-{4-[1-(2-ethylbutyl)azetidin-3-yl]phenyl}-3-(pyridin-3-yl)azetidine-1-carboxamide] | 9.68 | 6.27 | 6.21
O=C(Nc1ccc(C2CN(CC3CCCCC3)C2)cc1)N1CC(c2cccnc2)C1 [Example 246, N-{4-[1-(cyclohexylmethyl)azetidin-3-yl]phenyl}-3-(pyridin-3-yl)azetidine-1-carboxamide] | 9.67 | 6.36 | 6.21

Other lines, results leading:

pIC50 [1] | pIC50 [2] | pIC50 [3] | Compound
9.50 | 7.59 | 8.04 | O=C(Nc1ccc(OC2CN(C(=O)c3cncs3)C2)cc1)N1CC(c2cccnc2)C1 [Example 144, 3-(pyridin-3-yl)-N-(4-{[1-(1,3-thiazol-5-ylcarbonyl)azetidin-3-yl]oxy}phenyl)azetidine-1-carboxamide]
8.92 | 6.21 | 7.15 | CC[C@H](C)C(=O)N1CC[C@H](Oc2ccc(NC(=O)N3CC(c4cccnc4)C3)cc2)C1 [Example 98, N-[4-({(3S)-1-[(2S)-2-methylbutanoyl]pyrrolidin-3-yl}oxy)phenyl]-3-(pyridin-3-yl)azetidine-1-carboxamide]
9.64 | 8.49 | 8.04 | O=C(Nc1ccc(C2CCN(C(=O)c3ccsc3)CC2)cc1)N1CC(c2cccnc2)C1 [Example 185, 3-(pyridin-3-yl)-N-{4-[1-(thiophen-3-ylcarbonyl)piperidin-4-yl]phenyl}azetidine-1-carboxamide]
9.44 | 7.68 | 8.20 | O=C(Nc1ccc(O[C@@H]2CCN(C(=O)c3cccs3)C2)cc1)N1CC(c2cccnc2)C1 [Example 324, 3-(pyridin-3-yl)-N-(4-{[(3R)-1-(thiophen-2-ylcarbonyl)pyrrolidin-3-yl]oxy}phenyl)azetidine-1-carboxamide]
9.53 | 7.62 | 8.02 | O=C(Nc1ccc(O[C@@H]2CCN(C(=O)c3ccsc3)C2)cc1)N1CC(c2cccnc2)C1 [Example 308, 3-(pyridin-3-yl)-N-(4-{[(3R)-1-(thiophen-3-ylcarbonyl)pyrrolidin-3-yl]oxy}phenyl)azetidine-1-carboxamide]
9.23 | 6.84 | 7.33 | O=C(CCC(F)(F)F)N1CC[C@@H](Oc2ccc(NC(=O)N3CC(c4cccnc4)C3)cc2)C1 [Example 311, 3-(pyridin-3-yl)-N-(4-{[(3R)-1-(4,4,4-trifluorobutanoyl)pyrrolidin-3-yl]oxy}phenyl)azetidine-1-carboxamide]
9.71 | 7.61 | 8.01 | O=C(Nc1ccc(O[C@@H]2CCN(C(=O)c3nccs3)C2)cc1)N1CC(c2cccnc2)C1 [Example 307, 3-(pyridin-3-yl)-N-(4-{[(3R)-1-(1,3-thiazol-2-ylcarbonyl)pyrrolidin-3-yl]oxy}phenyl)azetidine-1-carboxamide]
9.73 | 8.68 | 8.65 | O=C(Nc1ccc(C2CCN(C(=O)c3cccs3)CC2)cc1)N1CC(c2cccnc2)C1 [Example 188, 3-(pyridin-3-yl)-N-{4-[1-(thiophen-2-ylcarbonyl)piperidin-4-yl]phenyl}azetidine-1-carboxamide]
9.48 | 7.39 | 7.41 | O=C(Nc1ccc(OC2CCN(C(=O)[C@@H]3CCCO3)CC2)cc1)N1CC(c2cccnc2)C1 [Example 31, 3-(pyridin-3-yl)-N-[4-({1-[(2S)-tetrahydrofuran-2-ylcarbonyl]piperidin-4-yl}oxy)phenyl]azetidine-1-carboxamide]
9.36 | 7.01 | 7.29 | CC(=O)N1CC(Oc2ccc(NC(=O)N3CC(c4cccnc4)C3)cc2)C1 [Example 137, N-{4-[(1-acetylazetidin-3-yl)oxy]phenyl}-3-(pyridin-3-yl)azetidine-1-carboxamide]
9.37 | 7.25 | 7.16 | O=C(Nc1ccc(OC2CCN(C(=O)c3ccsc3)CC2)cc1)N1CC(c2cccnc2)C1 [Example 33, 3-(pyridin-3-yl)-N-(4-{[1-(thiophen-3-ylcarbonyl)piperidin-4-yl]oxy}phenyl)azetidine-1-carboxamide]
